In publication PMC11846289, “New tetrahydroisoquinolines bearing nitrophenyl group targeting HSP90 and RET enzymes: synthesis, characterization and biological evaluation” (BMC Chemistry, 2025):
Converted amounts (≈) assume the structure as drawn.

How the values were obtained:
[1] = test system: HCT116 (colon carcinoma human); assay: one spot 100 µg/ml cytotoxicity, HCT116; type: cell-based; details: for inhibition at 100 µg/mL: Homo sapiens, HCT-116, percent inhibition, read-out: one spot concentration inhibition, HCT116
[2] = test system: HEPG2 (human liver carcinoma); assay: one spot 100 µg/ml cytotoxicity, HEPG2; type: cell-based; details: for inhibition at 100 µg/mL: Homo sapiens, HepG2, percent inhibition, read-out: one spot concentration inhibition, HEPG2
[3] = test system: CACO2 (colon carcinoma human); assay: one spot 100 µg/ml cytotoxicity, CACO2; type: cell-based; details: for inhibition at 100 µg/mL: Homo sapiens, Caco-2, percent inhibition, read-out: one spot concentration inhibition, CACO2
[4] = test system: HEPG2 cell line; assay: MTT in vitro cytotoxicity, HEPG2; type: cell-based, human; details: for Selectivity Index = IC50 of HSF/IC50 of HEPG2: HSF vs HEPG2; for IC50: Homo sapiens, read-out: IC50 for HEPG2 ± S.D
Experimental: (§1) Using the MTT test method, the in vitro cytotoxicity of our synthesized compounds at different doses ranging from […] was examined in two cell lines, HEPG2 and MCF7, to examine 50% of the cancer cells dying.
(§2) Some of the synthesized compounds were tested as anticancer activity for the IC50 against two cell lines HEPG2 and MCF7 cells according to method. All cell lines were obtained from national cancer institute, Cairo—Egypt.

[5] = test system: normal human skin cell line (HSF); assay: one spot 100 µg/ml cytotoxicity, normal skin cell line HSF; type: cell-based; details: for cytotoxicity at 100 µg/mL / inhibition at 100 µg/mL: Homo sapiens; for cytotoxicity at 100 µg/mL: HSF, read-out: Inhibition percent of HSF cell line; for inhibition at 100 µg/mL: read-out: one spot concentration inhibition, HSF
[6] = test system: HUH7 (human liver carcinoma); assay: one spot 100 µg/ml cytotoxicity, HUH7; type: cell-based; details: for inhibition at 100 µg/mL: Homo sapiens, Huh-7, percent inhibition, read-out: one spot concentration inhibition, HUH7
[7] = test system: H460 (human lung carcinoma); assay: one spot 100 µg/ml cytotoxicity, H460; type: cell-based; details: for inhibition at 100 µg/mL: Homo sapiens, NCI-H460, percent inhibition, read-out: one spot concentration inhibition, H460
[8] = test system: A549 (human lung carcinoma); assay: one spot 100 µg/ml cytotoxicity, A549; type: cell-based; details: for inhibition at 100 µg/mL: Homo sapiens, A549, percent inhibition, read-out: one spot concentration inhibition, A549
[9] = test system: MCF7 cell line; assay: MTT in vitro cytotoxicity, MCF7; type: cell-based, human; details: for Selectivity Index = IC50 of HSF/ IC50 of MCF7: HSF vs MCF7; for IC50: Homo sapiens, read-out: IC50 for MCF7 ± S.D
Experimental: as §1, §2

[10] = test system: HSF; assay: IC50 against normal cell line HSF; type: cell-based, human; details: normal skin cell line HSF; for IC50: Homo sapiens, read-out: IC50 FOR HSF ± S.D.
[11] = test system: MG-63 (human osteosarcoma); assay: one spot 100 µg/ml cytotoxicity, MG-63; type: cell-based; details: for inhibition at 100 µg/mL: Homo sapiens, MG-63, percent inhibition, read-out: one spot concentration inhibition, MG-63
[12] = test system: MCF7 (human breast carcinoma); assay: one spot 100 µg/ml cytotoxicity, MCF7; type: cell-based; details: for inhibition at 100 µg/mL: Homo sapiens, MCF7, percent inhibition, read-out: one spot concentration inhibition, MCF7

CC(=O)C1C(c2cccc([N+](=O)[O-])c2)c2c(C)[nH]c(=S)c(C#N)c2CC1(C)O (centres unmarked) [Compound 2a, 7-Acetyl-4-cyano-1,6-dimethyl-6-hydroxy-8-(3-nitrophenyl)−5,6,7,8-tetra-hydroisoquinoline-3(2H)-thione]
inhibition at 100 µg/mL [1]: 62.3%
inhibition at 100 µg/mL [2]: 61.3%
inhibition at 100 µg/mL [3]: 55.1%
Selectivity Index = IC50 of HSF/IC50 of HEPG2 [4]: 1.2
IC50 ([4]; MTT, HEPG2): 82 ± 0.054 µg/mL (≈ 206 µM)
cytotoxicity at 100 µg/mL ([5]; one spot 100 µg/ml): 48%
inhibition at 100 µg/mL ([5]; 100 µg/ml, supplement Table S1): 46.2%
inhibition at 100 µg/mL [6]: 27.4%
inhibition at 100 µg/mL [7]: 55.3%
inhibition at 100 µg/mL [8]: 42.4%
Selectivity Index = IC50 of HSF/ IC50 of MCF7 [9]: > 2
Selectivity Index = IC50 of HSF/ IC50 of MCF7 ([9]; listed as 2A): 2.8
IC50 ([9]; MTT, MCF7): 35 ± 0.061 µg/mL (≈ 88.1 µM)
IC50 [10]: 100 µg/mL (≈ 252 µM)
inhibition at 100 µg/mL [11]: 41.9%
inhibition at 100 µg/mL [12]: 74%

CCOC(=O)CSc1nc(C)c2c(c1C#N)CC(C)(O)C(C(C)=O)C2c1cccc([N+](=O)[O-])c1 (centres unmarked) [Compound 4, Ethyl 2-[(7-acetyl-4-cyano-1,6-dimethyl-6-hydroxy-8-(3-nitrophenyl)−5,6,7,8-tetra-hydroisoquinolin-3-yl)thio]acetate]
inhibition at 100 µg/mL [1]: 56.8%
inhibition at 100 µg/mL [2]: 62.1%
inhibition at 100 µg/mL [3]: 64.4%
Selectivity Index = IC50 of HSF/IC50 of HEPG2 [4]: 1.2
IC50 ([4]; MTT, HEPG2): 80 ± 0.07 µg/mL (≈ 165 µM)
cytotoxicity at 100 µg/mL ([5]; one spot 100 µg/ml): 50%
inhibition at 100 µg/mL ([5]; 100 µg/ml, supplement Table S1): 49.4%
inhibition at 100 µg/mL [6]: 27.5%
inhibition at 100 µg/mL [7]: 66.8%
inhibition at 100 µg/mL [8]: 47.2%
Selectivity Index = IC50 of HSF/ IC50 of MCF7 [9]: 2.1
IC50 ([9]; MTT, MCF7): 47 ± 0.055 µg/mL (≈ 97.2 µM)
IC50 [10]: 100 µg/mL (≈ 207 µM)
inhibition at 100 µg/mL [11]: 53.8%
inhibition at 100 µg/mL [12]: 76.3%

CC(=O)C1C(c2ccc([N+](=O)[O-])cc2)c2c(C)nc(SCC#N)c(C#N)c2CC1(C)O (centres unmarked) [Compound 5, 2-[(7-Acetyl-4-cyano-1,6-dimethyl-6-hydroxy-8-(4-nitrophenyl)−5,6,7,8-tetra-hydroisoquinolin-3-yl)thio]acetoonitriile]
inhibition at 100 µg/mL [1]: 58.9%
inhibition at 100 µg/mL [2]: 68.2%
inhibition at 100 µg/mL [3]: 61.5%
Selectivity Index = IC50 of HSF/IC50 of HEPG2 [4]: 0.73
IC50 ([4]; MTT, HEPG2): 97 ± 0.053 µg/mL (≈ 222 µM)
cytotoxicity at 100 µg/mL ([5]; one spot 100 µg/ml): 70%
inhibition at 100 µg/mL ([5]; 100 µg/ml, supplement Table S1): 66.8%
inhibition at 100 µg/mL [6]: 35.5%
inhibition at 100 µg/mL [7]: 66.6%
inhibition at 100 µg/mL [8]: 55.2%
Selectivity Index = IC50 of HSF/ IC50 of MCF7 [9]: 2.1
IC50 ([9]; MTT, MCF7): 33 ± 0.042 µg/mL (≈ 75.6 µM)
IC50 [10]: 71 µg/mL (≈ 163 µM)
inhibition at 100 µg/mL [11]: 55.7%
inhibition at 100 µg/mL [12]: 67.6%

CC(=O)c1ccc(NC(=O)CSc2nc(C)c3c(c2C#N)CC(C)(O)C(C(C)=O)C3c2cccc([N+](=O)[O-])c2)cc1 (centres unmarked) [Compound 6a, 2-[(7-Acetyl-4-cyano-1,6-dimethyl-6-hydroxy-8-(3-nitrophenyl)−5,6,7,8-tetra-hydroisoquinolin-3-yl)thio]-N-(4-acetylphenyl)acetamide]
inhibition at 100 µg/mL [1]: 58.1%
inhibition at 100 µg/mL [2]: 59.5%
inhibition at 100 µg/mL [3]: 54.8%
IC50 ([4]; MTT, HEPG2): > 100 µg/mL
cytotoxicity at 100 µg/mL ([5]; one spot 100 µg/ml): 56%
inhibition at 100 µg/mL ([5]; 100 µg/ml, supplement Table S1): 53.5%
inhibition at 100 µg/mL [6]: 38.6%
inhibition at 100 µg/mL [7]: 63.5%
inhibition at 100 µg/mL [8]: 20.3%
Selectivity Index = IC50 of HSF/ IC50 of MCF7 [9]: > 2
Selectivity Index = IC50 of HSF/ IC50 of MCF7 ([9]; listed as 6A): 4.2
IC50 ([9]; MTT, MCF7): 21 ± 0.057 µg/mL (≈ 36.7 µM)
IC50 [10]: 89 µg/mL (≈ 155 µM)
inhibition at 100 µg/mL [11]: 45.8%
inhibition at 100 µg/mL [12]: 66.4%

CC(=O)c1ccc(NC(=O)c2sc3nc(C)c4c(c3c2N)CC(C)(O)C(C(C)=O)C4c2cccc([N+](=O)[O-])c2)cc1 (centres unmarked) [Compound 7a, 7-Acetyl-N-(4-acetylophenyl)−1-amino-5,8-dimethyl-8-hydroxy-6-(3-nitro-phenyl)−6,7,8,9-tetrahydrothieno[2,3-c]isoquinoline-2-carboxamide]
one spot concentration inhibition, HCT116 ([1]; percent inhibition): 59.7%
one spot concentration inhibition, HEPG2 ([2]; percent inhibition): 58.67%
one spot concentration inhibition, CACO2 ([3]; percent inhibition): 58.2%
Selectivity Index = IC50 of HSF/IC50 of HEPG2 [4]: 0.92
IC50 for HEPG2 ± S.D ([4]; MTT, HEPG2): 97 ± 0.054 µg/mL
one spot concentration inhibition, HSF ([5]; 100 µg/ml, supplement Table S1): 51.85%
Inhibition percent of HSF cell line ([5]; one spot 100 µg/ml): 55%
one spot concentration inhibition, HUH7 ([6]; percent inhibition): 32.35%
one spot concentration inhibition, H460 ([7]; percent inhibition): 59.87%
one spot concentration inhibition, A549 ([8]; percent inhibition): 46.81%
Selectivity Index = IC50 of HSF/ IC50 of MCF7 [9]: 1.8
IC50 for MCF7 ± S.D ([9]; MTT, MCF7): 50 ± 0.031 µg/mL
IC50 FOR HSF ± S.D. [10]: 90 µg/mL (≈ 157 µM)
one spot concentration inhibition, MG-63 ([11]; percent inhibition): 50.44%
one spot concentration inhibition, MCF7 ([12]; percent inhibition): 57.92%

CC(=O)C1C(c2cccc([N+](=O)[O-])c2)c2c(C)nc(SCC(=O)Nc3cccc4ccccc34)c(C#N)c2CC1(C)O (centres unmarked) [Compound 8a, 2-[(7-Acetyl-4-cyano-1,6-dimethyl-6-hydroxy-8-(3-nitrophenyl)−5,6,7,8-tetrahydro-isoquinolin-3-yl)thio]-N-(naphthalen-1-yl)acetamide]
inhibition at 100 µg/mL [1]: 56.1%
inhibition at 100 µg/mL [2]: 60%
inhibition at 100 µg/mL [3]: 53.2%
Selectivity Index = IC50 of HSF/IC50 of HEPG2 [4]: 0.95
IC50 ([4]; MTT, HEPG2): 88 ± 0.072 µg/mL (≈ 152 µM)
cytotoxicity at 100 µg/mL ([5]; one spot 100 µg/ml): 59%
inhibition at 100 µg/mL ([5]; 100 µg/ml, supplement Table S1): 56.9%
inhibition at 100 µg/mL [6]: 25.9%
inhibition at 100 µg/mL [7]: 59.6%
inhibition at 100 µg/mL [8]: 46.2%
Selectivity Index = IC50 of HSF/ IC50 of MCF7 [9]: 1.6
IC50 ([9]; MTT, MCF7): 50 ± 0.019 µg/mL (≈ 86.1 µM)
IC50 [10]: 84 µg/mL (≈ 145 µM)
inhibition at 100 µg/mL [11]: 38.5%
inhibition at 100 µg/mL [12]: 72.4%

CC(=O)C1C(c2ccc([N+](=O)[O-])cc2)c2c(C)nc(SCC(=O)Nc3cccc4ccccc34)c(C#N)c2CC1(C)O (centres unmarked) [Compound 8b, 2-[(7-Acetyl-4-cyano-1,6-dimethyl-6-hydroxy-8-(4-nitrophenyl)−5,6,7,8-tetrahydro-isoquinolin-3-yl)thio]-N-(naphthalen-1-yl)acetamide]
inhibition at 100 µg/mL [1]: 67.5%
inhibition at 100 µg/mL [2]: 66.6%
inhibition at 100 µg/mL [3]: 41.7%
Selectivity Index = IC50 of HSF/IC50 of HEPG2 [4]: 1.1
IC50 ([4]; MTT, HEPG2): 94 ± 0.82 µg/mL (≈ 162 µM)
cytotoxicity at 100 µg/mL ([5]; one spot 100 µg/ml): 50%
inhibition at 100 µg/mL ([5]; 100 µg/ml, supplement Table S1): 48.2%
inhibition at 100 µg/mL [6]: 30.2%
inhibition at 100 µg/mL [7]: 62%
inhibition at 100 µg/mL [8]: 15.2%
Selectivity Index = IC50 of HSF/ IC50 of MCF7 [9]: > 2
Selectivity Index = IC50 of HSF/ IC50 of MCF7 ([9]; listed as 8B): 8.3
IC50 ([9]; MTT, MCF7): 12 ± 0.056 µg/mL (≈ 20.7 µM)
IC50 [10]: 100 µg/mL (≈ 172 µM)
inhibition at 100 µg/mL [11]: 57.5%
inhibition at 100 µg/mL [12]: 57.2%
